From patent US20240173346A1, “LINE-1 INHIBITORS TO TREAT CNS AND SYSTEMIC DISEASES” (TRANSPOSON THERAPEUTICS, INC., priority 2021, published 2024)
Where a name gives a salt, the structure may show the parent alone. Read-outs that look alike come from different tables or passages of the source.

Test system: human LINE-1
Assay: Human LINE-1 retrotransposition assay (HeLa cell-based dual-luciferase reporter, plasmid pYX017)
Conditions: HeLa cells; for IC50: 72 h incubation
Procedure: Islatravir and other compounds were tested for inhibition of retrotransposition activity of human LINE-1 in HeLa cells according to the following procedure.
HeLa cervical cancer cells were cultivated at 37° C. in a humidified 5% CO2 incubator in Dulbecco's Modified Eagle's Medium (DMEM)—high glucose, with 4500 mg/L glucose, L-glutamine, sodium pyruvate and sodium bicarbonate (Sigma), supplemented with 10% of heat inactivated fetal bovine serum (Thermo Fisher).
Assays were performed using reporter plasmid pYX017 as described (Xie, et al., 2011) with several modifications. The reporter assay was performed in 96-well white optical bottom plates. HeLa cells were seeded in wells 24 h prior to transfection and compound treatment so that cells were approximately 30% confluent on the day of transfection. Different cell plating densities were tested and a density of 2×10^3 cells was determined to be optimal.
Compounds were resuspended in DMSO. Serial dilutions (1:3) were prepared in DMSO. Medium containing different concentrations of the compounds were prepared by adding 2 μl of the compound dilution to 1 ml of the culture medium. The final concentration of DMSO in the medium was 0.2%.
FuGENE® HD transfection reagent (Promega, E2311, Lot 382574 and Lot 397842) was used to transfect the plasmids into the cells. The transfection reagent: DNA mixture was prepared in OpiMEM (Thermo Fisher) according to manufacturer's instructions. Different ratios of transfection reagent to DNA were tested and a ratio of 3:1 was determined to be optimal. Culture medium was removed from the cells and discarded. The transfection reagent: DNA mixture (5 μl) was mixed with the compound containing medium (100 μl/well) and this was added onto the cells of each well. Cells were incubated at 37° C./5% CO2 for different incubation time. A 72 h incubation time was determined to be optimal.
Luciferase reporter activity was quantified with the Dual-Luciferase® Reporter Assay System (Promega) according to manufacturer's instructions for multiwell plates except that cells were lysed directly on the multiwell plate with 30 μl of the passive lysis buffer (PLB) for 20 min at room temperature, with gentle shaking to ensure complete cell lysis.
Firefly and Renilla luciferase signals were measured using a SpectraMax i3x Multi-Mode Microplate Reader. Integration times of 100 ms and 10 ms were used to measure the Firefly and Renilla signals respectively. Relative L1 activity is calculated as Firefly/Renilla *1000 or Firefly/Renilla *10,000. Dose response inhibition data were fit to a four parameter logistic equation using non-linear regression (using Graphpad Prism 8), to determine IC50 values for each inhibitor.

[1] = Homo sapiens, Firefly/Renilla luciferase, experiment 3, read-out: Human LINE-1 IC50, Exp. 3
[2] = Homo sapiens, Firefly/Renilla luciferase, experiment 4, read-out: Human LINE-1 IC50, Exp. 4
[3] = Homo sapiens, compounds of Table 1 (Table 4), read-out: Human LINE-1 IC50
[4] = Homo sapiens, Firefly/Renilla luciferase, experiment 1, read-out: Human LINE-1 IC50, Exp. 1
[5] = Homo sapiens, average of n = 2-4 experiments, read-out: Human LINE-1 IC50, Average
[6] = Homo sapiens, Firefly/Renilla luciferase, experiment 2, read-out: Human LINE-1 IC50, Exp. 2

Structure (SMILES) | IC50 [1] [nM] | IC50 [2] [nM] | further results
CC[C@]1(CO)O[C@@H](n2cc(C)c(=O)[nH]c2=O)C[C@@H]1O [compound 19] | – | – | IC50 [3]: 2000 nM
Cc1cn([C@H]2C=C[C@@H](CO)O2)c(=O)[nH]c1=O [Stavudine] | 780 | 710 | –
C#C[C@]1(CO)O[C@@H](n2cc(C)c(N)nc2=O)C[C@@H]1O [compound 6] | – | – | IC50 [3]: 18600 nM
Nc1nc(NC2CC2)c2ncn([C@H]3C=C[C@@H](CO)C3)c2n1 [Abacavir sulfate] | 16800 | 17400 | –
C#C[C@@]1(CO)C=C[C@H](n2cc(C)c(=O)[nH]c2=O)O1 [Censavudine, 4′-ethynylstavudine] | 80 | – | human LINE-1 inhibitor activity compared to the other reverse transcriptase inhibitory drugs tested (comparison in words): unexpectedly better human LINE-1 inhibitor activity; IC50 [6]: 90 nM; IC50 [5]: 70 nM
C#C[C@]1(CO)O[C@@H](n2cnc3c(N)nc(F)nc32)C[C@@H]1O [Islatravir, 2′-deoxy-4′-ethynyl-2-fluoroadenosine] | – | – | IC50 [5]: 1.3 nM
CC[C@]1(CO)O[C@@H](n2cnc3c(O)nc(N)nc32)C[C@@H]1O [compound 20] | – | – | IC50 [3]: 3 nM
C=C[C@]1(CO)O[C@@H](n2ccc(N)nc2=O)C[C@@H]1O [compound 18] | – | – | IC50 [3]: 8 nM
CC(C)OC(=O)OCOP(=O)(CO[C@H](C)Cn1cnc2c(N)ncnc21)OCOC(=O)OC(C)C [Tenofovir disoproxil] | 140 | 260 | –
C[C@H](Cn1cnc2c(N)ncnc21)OCP(=O)(O)O [Tenofovir] | – | – | IC50 (Firefly/Renilla luciferase, experiment 3, read-out: Human LINE-1 IC50, Exp. 3): 3310 nM; IC50 (Firefly/Renilla luciferase, experiment 4, read-out: Human LINE-1 IC50, Exp. 4): 2230 nM

Now from value to compound, other results behind:

IC50 [1] [nM] | IC50 [2] [nM] | Structure (SMILES) | further results
1390 | 1300 | Nc1nc(=O)n([C@@H]2CS[C@H](CO)O2)cc1F [Emtricitabine] | –
80 | 110 | Nc1nc(=O)n([C@@H]2C=C[C@H](CO)O2)cc1F [Elvucitabine] | IC50 [4]: 90 nM; IC50 [5]: 90 nM
7690 | 5220 | Nc1ccn([C@H]2CO[C@@H](CO)S2)c(=O)n1 [Apricitabine] | IC50 [5]: 6460 nM
570 | 340 | Nc1ccn([C@@H]2CS[C@H](CO)O2)c(=O)n1 [Lamivudine] | IC50 [4]: 790 nM; IC50 [6]: 870 nM
